In ChEMBL document CHEMBL1201862, “PubChem BioAssay data set” (2004):
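Test compounds were applied to cells in 96-well plates for 48 hours at 5 doses. GI50 is the concentration that inhibits growth by half.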 Activity calls are given as the source filed them. Rule as the data show it: active = GI50 up to about 1.1 µM and inactive = higher.

What was measured:
Assay in all cases: NCI-60 cell line screen, 48 h
M19-MEL = test system: M19-MEL
SNB-78 = test system: SNB-78
DMS-114 = test system: DMS-114
XF498 = test system: XF498
KM-20L2 = test system: KM-20L2
LXFL 529 = test system: LXFL 529
DLD-1 = test system: DLD-1
HOP-18 = test system: HOP-18
RXF 631 = test system: RXF 631

Structure (SMILES)	GI50 (M19-MEL)	GI50 (SNB-78)	GI50 (DMS-114)	GI50 (XF498)	GI50 (KM-20L2)	GI50 (LXFL 529)	GI50 (DLD-1)	GI50 (HOP-18)	GI50 (RXF 631)
COc1cccc(C2CC23C(=O)NC(=O)NC3=O)c1 (stereo unspecified)	> 100 µM (inactive)	> 100 µM (inactive)	> 100 µM (inactive)	> 100 µM (inactive)	> 100 µM (inactive)	> 100 µM (inactive)			
Cc1nc(Nc2ccc(Cl)cc2)sc1C(=O)Nc1cccc2c(=O)[nH][nH]c(=O)c12	30.3 µM (inactive)	> 100 µM (inactive)	19.2 µM (inactive)		11.8 µM (inactive)	13.1 µM (inactive)	17.5 µM (inactive)		
CC1OC(CC(=O)O)CC2=C1C(=O)c1c(O)cccc1C2=O (stereo unspecified) [NANAOMYCIN]	0.0845 µM (active)	0.13 µM (active)	0.129 µM (active)	0.166 µM (active)	0.225 µM (active)	0.0851 µM (active)	0.0192 µM (active)	2.41 µM (inactive)	0.6 µM (active)
COc1ccc(NC(=O)/C(=N/O)C(C)=O)cc1		> 100 µM (inactive)	36.7 µM (inactive)		87.9 µM (inactive)	> 100 µM (inactive)	42.5 µM (inactive)	> 100 µM (inactive)	
CCOC(=O)C(Cc1cc(OC)c(CC(C(=O)OCC)C(=O)OCC)cc1OC)C(=O)OCC	> 100 µM (inactive)	57.9 µM (inactive)	> 100 µM (inactive)	21.6 µM (inactive)	> 100 µM (inactive)	> 100 µM (inactive)	> 100 µM (inactive)		
N#C/N=C(/N)NCN/C(N)=N\C#N	> 100 µM (inactive)	> 100 µM (inactive)	> 100 µM (inactive)		> 100 µM (inactive)	> 100 µM (inactive)	81.5 µM (inactive)	> 100 µM (inactive)	> 100 µM (inactive)
O=C(O)CCCCCO	> 100 µM (inactive)	> 100 µM (inactive)	> 100 µM (inactive)	> 100 µM (inactive)	> 100 µM (inactive)	> 100 µM (inactive)	> 100 µM (inactive)	> 100 µM (inactive)	
CCOC(=O)/C(=C/c1cccc(Cl)c1)N(CC)CC	88.7 µM (inactive)		31 µM (inactive)	46.3 µM (inactive)		46.7 µM (inactive)	48.9 µM (inactive)	24.2 µM (inactive)	
CC1(C)Oc2ccccc2[N+]([O-])=C1c1ccccc1	> 100 µM (inactive)	> 100 µM (inactive)	> 100 µM (inactive)		> 100 µM (inactive)	> 100 µM (inactive)	> 100 µM (inactive)		> 100 µM (inactive)
CCOC(=O)C1=C(OC(OCC)C([Se]c2ccccc2)C(C)C)CCC1 (stereo unspecified)	15.3 µM (inactive)	12.8 µM (inactive)		11.6 µM (inactive)	28.8 µM (inactive)	12.2 µM (inactive)	14.7 µM (inactive)	16.2 µM (inactive)	
CC(=O)C1C(=O)C(=O)N(c2ccccc2C(C)C)C1=O (stereo unspecified)	> 100 µM (inactive)	> 100 µM (inactive)		> 100 µM (inactive)	> 100 µM (inactive)	> 100 µM (inactive)		> 100 µM (inactive)	
Nc1nc(N)c2c(Cl)c(CNc3ccc(Cl)c(Cl)c3)ccc2n1	0.0238 µM (active)	7.19 µM (inactive)	< 0.01 µM (active)	2.07 µM (inactive)	0.225 µM (active)	< 0.0278 µM (active)	< 0.01 µM (active)	0.716 µM (active)	
O=S(=O)(C/C(=N\O)c1ccccc1)c1ccccc1	> 100 µM (inactive)	> 100 µM (inactive)		59.3 µM (inactive)	> 100 µM (inactive)	> 100 µM (inactive)	> 100 µM (inactive)	> 100 µM (inactive)	> 100 µM (inactive)
Nc1ncn([C@@H]2C=C(CO)C(O)C2O)c(=O)n1 (stereo partly specified)	> 100 µM (inactive)	61.5 µM (inactive)		> 100 µM (inactive)	63.8 µM (inactive)	75 µM (inactive)	58.2 µM (inactive)	> 100 µM (inactive)	> 100 µM (inactive)
CCC1CN2CCc3cc(OC)c(OC)cc3C2CC1CC1c2cc(OC)c(OC)cc2CCN1C(=O)CNC(=O)OC(C)(C)C (stereo unspecified)	16.3 µM (inactive)	20.5 µM (inactive)	3.8 µM (inactive)	7.53 µM (inactive)	5.08 µM (inactive)	10.9 µM (inactive)	4.67 µM (inactive)	23.3 µM (inactive)	30.3 µM (inactive)
CC1=C(C(=O)Nc2ccc([N+](=O)[O-])cc2)C(c2ccccc2F)C(C(=O)Nc2ccc([N+](=O)[O-])cc2)=C(C)N1	14.2 µM (inactive)		5.07 µM (inactive)	1.48 µM (inactive)	12.3 µM (inactive)	6.92 µM (inactive)	8.45 µM (inactive)		21.3 µM (inactive)
Cc1cccc2c1Sc1ccccc1C2NC(=O)CCN(C)C (stereo unspecified)	> 100 µM (inactive)	> 100 µM (inactive)	> 100 µM (inactive)		> 100 µM (inactive)	> 100 µM (inactive)	> 100 µM (inactive)		
NNC(=S)N/N=C(/C(=O)Nc1ccc([N+](=O)[O-])cc1)c1nc2ccc([N+](=O)[O-])cc2nc1O	> 100 µM (inactive)	> 100 µM (inactive)	77.6 µM (inactive)	> 100 µM (inactive)			> 100 µM (inactive)	> 100 µM (inactive)	
CC1C[C@]2(C[C@@H](C)C(=O)O2)O[C@@H]2CC3(C)[C@@H]4CCC5C(C)(C)OC(=O)C[C@H]6OO[C@]4(CC[C@]3(C)C12)CC56O (stereo partly specified)		> 100 µM (inactive)	> 100 µM (inactive)	> 100 µM (inactive)		> 100 µM (inactive)	> 100 µM (inactive)	> 100 µM (inactive)	
CC(C)c1ccccc1NC(=O)C(=O)Cc1nc2ccccc2s1	> 100 µM (inactive)	> 100 µM (inactive)	> 100 µM (inactive)		> 100 µM (inactive)	> 100 µM (inactive)		> 100 µM (inactive)	> 100 µM (inactive)
COc1ccc(/C=C2\C(=O)N(C(=O)Cc3ccccc3)N=C2C)cc1OC	> 100 µM (inactive)	> 100 µM (inactive)	> 100 µM (inactive)	> 100 µM (inactive)				> 100 µM (inactive)	
COC(=O)C(=Cc1cc(OC)c(OC)c(OC)c1-c1cc2c(cc1C1(C)OCCS1)OCO2)C(=O)OC (stereo unspecified)	23 µM (inactive)		19.8 µM (inactive)		22.3 µM (inactive)	24.1 µM (inactive)	27.6 µM (inactive)		31.4 µM (inactive)
COc1ccc2[nH]c3ccc4cc[n+](CCN5CCC(C6CCN(CC[n+]7ccc8ccc9[nH]c%10ccc(OC)cc%10c9c8c7)CC6)CC5)cc4c3c2c1	0.719 µM (active)	9.12 µM (inactive)	0.125 µM (active)	> 60.1 µM (inactive)	1.36 µM (inactive)		0.824 µM (active)	1.79 µM (inactive)	
c1ccc2c(c1)cc1n2CC2CN=NC12 (stereo unspecified)	> 100 µM (inactive)	> 100 µM (inactive)			> 100 µM (inactive)	> 100 µM (inactive)	> 100 µM (inactive)		> 100 µM (inactive)
O=C1OC(=O)c2c1c(-c1ccccc1)nc1ccccc21	> 100 µM (inactive)	> 100 µM (inactive)	> 100 µM (inactive)	> 100 µM (inactive)	> 100 µM (inactive)	> 100 µM (inactive)	> 100 µM (inactive)		> 100 µM (inactive)
COC(=O)c1sc(=NC(=S)N2CCCCC2)sc1C(=O)OC	5.69 µM (inactive)	> 100 µM (inactive)	62.7 µM (inactive)		> 100 µM (inactive)	> 100 µM (inactive)	> 100 µM (inactive)	> 100 µM (inactive)	62.7 µM (inactive)
C=C(CCCCC)CN1CCCC1C(C)=O (stereo unspecified)	28.9 µM (inactive)	26.1 µM (inactive)	15 µM (inactive)	15 µM (inactive)	29.4 µM (inactive)	27.3 µM (inactive)	24.7 µM (inactive)	28.9 µM (inactive)	
COc1ccc(O)cc1 [MEQUINOL]	95.3 µM (inactive)	> 100 µM (inactive)	48.4 µM (inactive)	> 100 µM (inactive)	28.6 µM (inactive)	33.6 µM (inactive)	> 100 µM (inactive)		
CCOP(=O)(OCC)C1=NC=CC=CC1n1c(-c2ccccc2)nn(CC)c1=O (stereo unspecified)	> 100 µM (inactive)		> 100 µM (inactive)		> 100 µM (inactive)	> 100 µM (inactive)	> 100 µM (inactive)	> 100 µM (inactive)	> 100 µM (inactive)
COC(=O)/C(C#N)=C1\CCC(OC)N1 (stereo unspecified)	> 100 µM (inactive)	> 100 µM (inactive)	> 100 µM (inactive)	> 100 µM (inactive)	> 100 µM (inactive)	> 100 µM (inactive)	> 100 µM (inactive)	> 100 µM (inactive)	
